Assay results taken from patent US7507730B2, “Substituted pyrazolo[1,5-a]pyrimidines as potassium channel activators” (Bristol-Myers Squibb Company, priority 2005, dated 2009).
Like-named read-outs stand apart in the source and are kept apart here.

Biological target: Kv1.5 (Homo sapiens, UniProt P22460)
Assay: Kv1.5 inhibition assay (IKur inhibitor assay per cited references)
Format: cell-based
Conditions: for inhibition at 0.3 µM / Kv1.5% inhibition: at 0.3 μM
Description: Assays to determine the degree of activity of a compound as an IKur inhibitor are well known in the art and are described in references such as J. Gen. Physiol. Apr.; 101 (4):513-43, and Br. J. Pharmacol. 1995 May; 115(2):267-74.

Kv1.5, sequence (P22460 whole entry): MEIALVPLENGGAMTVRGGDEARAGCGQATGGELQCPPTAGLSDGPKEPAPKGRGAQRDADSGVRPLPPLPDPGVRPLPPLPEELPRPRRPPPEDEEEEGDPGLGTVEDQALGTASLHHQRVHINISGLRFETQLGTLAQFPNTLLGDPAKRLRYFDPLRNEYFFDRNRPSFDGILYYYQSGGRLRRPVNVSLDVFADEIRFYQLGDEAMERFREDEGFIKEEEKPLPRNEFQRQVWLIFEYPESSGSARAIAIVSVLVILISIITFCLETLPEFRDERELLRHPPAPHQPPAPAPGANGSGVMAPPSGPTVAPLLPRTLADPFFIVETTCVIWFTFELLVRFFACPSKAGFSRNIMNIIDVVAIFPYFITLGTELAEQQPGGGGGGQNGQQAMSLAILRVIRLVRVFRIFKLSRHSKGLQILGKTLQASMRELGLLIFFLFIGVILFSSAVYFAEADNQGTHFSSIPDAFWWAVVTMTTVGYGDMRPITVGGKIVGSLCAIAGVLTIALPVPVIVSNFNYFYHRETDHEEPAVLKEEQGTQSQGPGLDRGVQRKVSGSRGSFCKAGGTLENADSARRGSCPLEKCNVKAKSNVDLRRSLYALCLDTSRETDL

Compound	inhibition at 0.3 µM	Kv1.5% inhibition	further results
CC1=C(S(=O)(=O)c2ccccc2)C(c2ccc3c(c2)OCO3)n2nc(C)cc2N1 (racemic) [Example 6, 7-(Benzo[d][1,3]dioxol-5-yl)-2,5-dimethyl-6-(phenylsulfonyl)-4,7-dihydropyrazolo[1,5-a]pyrimidine]	6.1%		
CC1=C(S(=O)(=O)NC(C)(C)C)C(c2ccc(Cl)c(Cl)c2)n2nc(C(F)(F)F)cc2N1 (single isomer, unassigned) [Example 58 Isomer 1, N-tert-Butyl-7-(3,4-dichlorophenyl)-5-methyl-2-(trifluoromethyl)-4,7-dihydropyrazolo[1,5-a]pyrimidine-6-sulfonamide]	42.9%		
CC1=C(S(=O)(=O)c2ccc(Cl)cc2)C(C2CCCCC2)n2nc(C(F)(F)F)cc2N1 (single isomer, unassigned) [Example 44 Isomer 2, 6-(4-Chlorophenylsulfonyl)-7-cyclohexyl-5-methyl-2-(trifluoromethyl)-4,7-dihydropyrazolo[1,5-a]pyrimidine]	21.3%		
COc1ccc(S(=O)(=O)C2=C(C)Nc3cc(C)nn3C2c2nc3ccccc3n2C)cc1 (single isomer, unassigned) [Example 23 Isomer 2, 6-(4-Methoxyphenylsulfonyl)-2,5-dimethyl-7-(1-methyl-1H-benzo[d]imidazol-2-yl)-4,7-dihydropyrazolo[1,5-a]pyrimidine]		16.6%	
CC1=C(S(=O)(=O)c2ccc(Cl)cc2)C(c2ccc(C)c(F)c2)n2nc(C(F)(F)F)cc2N1 (single isomer, unassigned) [Example 42 Isomer 2, 6-(4-Chlorophenylsulfonyl)-7-(3-fluoro-4-methylphenyl)-5-methyl-2-(trifluoromethyl)-4,7-dihydropyrazolo[1,5-a]pyrimidine]		92.9%	
CC1=C(S(=O)(=O)c2ccc(C(F)(F)F)cc2)C(c2ccc(Cl)c(Cl)c2)n2nc(C)cc2N1 (single isomer, unassigned) [Example 9 Isomer 2, 7-(3,4-Dichlorophenyl)-2,5-dimethyl-6-(4-(trifluoromethyl)phenylsulfonyl)-4,7-dihydropyrazolo[1,5-a]pyrimidine]	59.7%		
COc1ccccc1S(=O)(=O)C1=C(C)Nc2cc(C(F)(F)F)nn2C1c1ccc(Cl)cc1 (single isomer, unassigned) [Example 46 Isomer 1, 7-(4-Chlorophenyl)-6-(2-methoxyphenylsulfonyl)-5-methyl-2-(trifluoromethyl)-4,7-dihydropyrazolo[1,5-a]pyrimidine]	78.1%		
CC1=C(S(=O)(=O)N(C)c2ccccc2)C(c2ccc(Cl)c(Cl)c2)n2nc(C(F)(F)F)cc2N1 (single isomer, unassigned) [Example 63 Isomer 1, 7-(3,4-Dichlorophenyl)-N,5-dimethyl-N-phenyl-2-(trifluoromethyl)-4,7-dihydropyrazolo[1,5-a]pyrimidine-6-sulfonamide]	30%		
COc1ccc(S(=O)(=O)C2=C(C)Nc3cc(C)nn3C2c2ccc(Cl)c(Cl)c2)cc1 (single isomer, unassigned) [Example 8 Isomer 2, 7-(3,4-Dichlorophenyl)-6-(4-methoxyphenylsulfonyl)-2,5-dimethyl-4,7-dihydropyrazolo[1,5-a]pyrimidine]			IC50 (read-out: Kv1.5 IC50): 0.174 µM
COc1cccc(S(=O)(=O)C2=C(C)Nc3cc(C(F)(F)F)nn3C2c2ccc(C)c(F)c2)c1 (single isomer, unassigned) [Example 41 Isomer 2, 7-(3-Fluoro-4-methylphenyl)-6-(3-methoxyphenylsulfonyl)-5-methyl-2-(trifluoromethyl)-4,7-dihydropyrazolo[1,5-a]pyrimidine]		85.8%	
CC1=C(S(=O)(=O)c2ccccc2)C(c2ccc(Cl)cc2)n2nc(C(F)(F)F)cc2N1 (single isomer, unassigned) [Example 26 Isomer 2, 7-(4-Chlorophenyl)-5-methyl-6-(phenylsulfonyl)-2-(trifluoromethyl)-4,7-dihydropyrazolo[1,5-a]pyrimidine]		85.9%	
CC1=C(S(=O)(=O)c2ccc(F)cc2)C(c2ccc(Cl)c(Cl)c2)n2nc(C)cc2N1 (single isomer, unassigned) [Example 1 Isomer 1, 7-(3,4-Dichlorophenyl)-6-(4-fluorophenylsulfonyl)-2,5-dimethyl-4,7-dihydropyrazolo[1,5-a]pyrimidine]		98%	
CC1=C(S(=O)(=O)c2ccc(C)cc2)C(c2ccc(Cl)c(Cl)c2)n2nc(C)cc2N1 (single isomer, unassigned) [Example 5 Isomer 1, 7-(3,4-Dichlorophenyl)-2,5-dimethyl-6-tosyl-4,7-dihydropyrazolo[1,5-a]pyrimidine]			IC50 (read-out: Kv1.5 IC50): 0.048 µM
CCCCS(=O)(=O)C1=C(C)Nc2cc(C)nn2C1c1ccc(Cl)c(Cl)c1 (single isomer, unassigned) [Example 18 Isomer 2, 6-(Butylsulfonyl)-7-(3,4-dichlorophenyl)-2,5-dimethyl-4,7-dihydropyrazolo[1,5-a]pyrimidine]		28.8%	
CC1=C(C(=O)N(C)S(=O)(=O)C2CC2)C(c2ccc(Cl)c(Cl)c2)n2nc(C(F)(F)F)cc2N1 (single isomer, unassigned) [Example 98 Isomer 1, N-(Cyclopropylsulfonyl)-7-(3,4-dichlorophenyl)-N,5-dimethyl-2-(trifluoromethyl)-4,7-dihydropyrazolo[1,5-a]pyrimidine-6-carboxamide]			IC50 (read-out: Kv1.5 IC50): 0.112 µM
CC1=C(C(=O)N(C)S(=O)(=O)c2ccccc2)C(c2ccc(Cl)c(Cl)c2)n2nc(C)cc2N1 (racemic) [Example 78, 7-(3,4-Dichlorophenyl)-N,2,5-trimethyl-N-(phenylsulfonyl)-4,7-dihydropyrazolo[1,5-a]pyrimidine-6-carboxamide]			IC50 (given as % inhibition, value given as a concentration in μM, read-out: Kv1.5% inhibition): 0.164 µM
CC1=C(S(=O)(=O)NC2CCCCC2)C(c2ccc(Cl)c(Cl)c2)n2nc(C)cc2N1 (single isomer, unassigned) [Example 38 Isomer 1, N-Cyclohexyl-7-(3,4-dichlorophenyl)-2,5-dimethyl-4,7-dihydropyrazolo[1,5-a]pyrimidine-6-sulfonamide]			IC50 (read-out: Kv1.5 IC50): 0.108 µM
CC1=C(S(=O)(=O)c2ccccc2)C(c2ccc(Cl)c(F)c2)n2nc(C)cc2N1 (single isomer, unassigned) [Example 7 Isomer 2, 7-(4-Chloro-3-fluorophenyl)-2,5-dimethyl-6-(phenylsulfonyl)-4,7-dihydropyrazolo[1,5-a]pyrimidine]		32.4%	
CC1=C(S(=O)(=O)c2ccc(Cl)cc2)C(c2cncnc2)n2nc(C(F)(F)F)cc2N1 (single isomer, unassigned) [Example 50 Isomer 2, 6-(4-Chlorophenylsulfonyl)-5-methyl-7-(pyrimidin-5-yl)-2-(trifluoromethyl)-4,7-dihydropyrazolo[1,5-a]pyrimidine]		14.7%	
CC1=C(S(=O)(=O)N(C)c2ccccc2)C(c2ccc(Cl)c(Cl)c2)n2nc(C(F)(F)F)cc2N1 (single isomer, unassigned) [Example 63 Isomer 2, 7-(3,4-Dichlorophenyl)-N,5-dimethyl-N-phenyl-2-(trifluoromethyl)-4,7-dihydropyrazolo[1,5-a]pyrimidine-6-sulfonamide]		31%	

Second part, led by results:

inhibition at 0.3 µM	Kv1.5% inhibition	Compound	further results
	54%	CC1=C(S(=O)(=O)N2CCCC2)C(c2ccc(Cl)cc2)n2nc(C(F)(F)F)cc2N1 (single isomer, unassigned) [Example 67 Isomer 2, 7-(4-Chlorophenyl)-5-methyl-6-(pyrrolidin-1-ylsulfonyl)-2-(trifluoromethyl)-4,7-dihydropyrazolo[1,5-a]pyrimidine]	
26%		CC1=C(S(=O)(=O)N2CCN(c3ccccc3)CC2)C(c2ccc(Cl)c(Cl)c2)n2nc(C(F)(F)F)cc2N1 (racemic) [Example 70, 7-(3,4-Dichlorophenyl)-5-methyl-6-(4-phenylpiperazin-1-ylsulfonyl)-2-(trifluoromethyl)-4,7-dihydropyrazolo[1,5-a]pyrimidine]	
	78%	CC1=C(S(=O)(=O)N2CCCCC2)C(c2ccc(Cl)c(Cl)c2)n2nc(C(F)(F)F)cc2N1 (single isomer, unassigned) [Example 65 Isomer 2, 7-(3,4-Dichlorophenyl)-5-methyl-6-(piperidin-1-ylsulfonyl)-2-(trifluoromethyl)-4,7-dihydropyrazolo[1,5-a]pyrimidine]	
81%		CC1=C(S(=O)(=O)N2CCCCC2)C(c2ccc(Cl)c(Cl)c2)n2nc(C(F)(F)F)cc2N1 (single isomer, unassigned) [Example 65 Isomer 1, 7-(3,4-Dichlorophenyl)-5-methyl-6-(piperidin-1-ylsulfonyl)-2-(trifluoromethyl)-4,7-dihydropyrazolo[1,5-a]pyrimidine]	
51%		CC1=C(S(=O)(=O)N2CCOCC2)C(c2ccc(Cl)c(Cl)c2)n2nc(C(F)(F)F)cc2N1 (single isomer, unassigned) [Example 66 Isomer 1, 7-(3,4-Dichlorophenyl)-5-methyl-6-(morpholinosulfonyl)-2-(trifluoromethyl)-4,7-dihydropyrazolo[1,5-a]pyrimidine]	
38%		CC1=C(C(=O)N(C)S(=O)(=O)c2ccc3ccc(Cl)cc3c2)C(c2ccc(Cl)c(Cl)c2)n2nccc2N1 (racemic) [Example 76, N-(7-Chloronaphthalen-2-ylsulfonyl)-7-(3,4-dichlorophenyl)-N,5-dimethyl-4,7-dihydropyrazolo[1,5-a]pyrimidine-6-carboxamide]	
7%		CC1=C(C(=O)N(C)S(=O)(=O)c2ccc(F)cc2)C(c2ccc(Cl)c(Cl)c2)n2nc(C(F)(F)F)cc2N1 (racemic) [Example 82, 7-(3,4-Dichlorophenyl)-N-(4-fluorophenylsulfonyl)-N,5-dimethyl-2-(trifluoromethyl)-4,7-dihydropyrazolo[1,5-a]pyrimidine-6-carboxamide]	
86%		COc1ccc(S(=O)(=O)N(C)C(=O)C2=C(C)Nc3ccnn3C2c2ccc(Cl)c(Cl)c2)cc1 (racemic) [Example 73, 7-(3,4-Dichlorophenyl)-N-(4-methoxyphenylsulfonyl)-N,5-dimethyl-4,7-dihydropyrazolo[1,5-a]pyrimidine-6-carboxamide]	
